Source: PubChem BioAssay (NCI)
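Protocol summary: plate cells (96-well), add compound at 5 concentrations, incubate 48 h, interpolate endpoints linearly. GI50 = concentration required for 50% inhibition of growth. TGI: total growth inhibition.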

Key:
Assay in all cases: inhibition of tumour cell growth, NCI panel, 48 h
IGROV1 ovarian = test system: IGROV1 ovarian
KM12 colon = test system: KM12 colon
K-562 leukemia = test system: K-562 leukemia
SK-OV-3 ovarian = test system: SK-OV-3 ovarian
SK-MEL-2 melanoma = test system: SK-MEL-2 melanoma
U251 CNS = test system: U251 CNS
SNB-75 CNS = test system: SNB-75 CNS
786-0 renal = test system: 786-0 renal
OVCAR-3 ovarian = test system: OVCAR-3 ovarian
SW-620 colon = test system: SW-620 colon

SMILES | GI50 (IGROV1 ovarian) [µM] | TGI (IGROV1 ovarian) [µM] | GI50 (KM12 colon) [µM] | TGI (KM12 colon) [µM] | GI50 (K-562 leukemia) [µM] | TGI (K-562 leukemia) [µM] | GI50 (SK-OV-3 ovarian) [µM] | TGI (SK-OV-3 ovarian) [µM] | GI50 (SK-MEL-2 melanoma) [µM] | TGI (SK-MEL-2 melanoma) [µM] | GI50 (U251 CNS) [µM] | TGI (U251 CNS) [µM] | GI50 (SNB-75 CNS) [µM] | TGI (SNB-75 CNS) [µM] | GI50 (786-0 renal) [µM] | TGI (786-0 renal) [µM] | GI50 (OVCAR-3 ovarian) [µM] | TGI (OVCAR-3 ovarian) [µM] | GI50 (SW-620 colon) [µM] | TGI (SW-620 colon) [µM]
COc1cc(OC)cc(C2C3=C(COC3=O)Nc3cc(OC)ccc32)c1 (stereo not drawn) | < 0.01 | > 94.5 | < 0.01 | < 0.0106 | < 0.01 | 13.4 | < 0.01 | < 0.01 | 0.335 | > 100 | < 0.01 | > 43.8 | < 0.01 | 24.1 | 0.0203 | 30.9 | < 0.01 | < 0.01 | < 0.01 | > 70.8
CCCc1cc(=O)n2c(C(=O)Nc3ccc(F)cc3)c(C(=O)Nc3ccc(F)cc3)sc2n1 | 30.3 | 148 | 111 | > 160 | 10.6 | > 160 | 41.7 | > 160 | 24.1 | 54.4 | 16.3 | 47.9 | 3.48 | 13.8 | 2.64 | 13.3 | 22.9 | 49.8 | 56.5 | > 160
CC(C)OC(=S)Nc1ccc(Cl)c(/C=N/OC(C)(C)C)c1 | – | 36.6 | – | 17.6 | – | 43 | – | 41.6 | – | 37.5 | – | 31.7 | – | 54.7 | – | 34.3 | – | 33.6 | – | 32
CC/C(Cc1ccccc1)=C(\c1ccc(OCCN2CCCC2)cc1)c1ccc(OC(=O)NCc2ccccc2)cc1 | 1.93 | 3.87 | 1.92 | 3.81 | 1.7 | 4.4 | 11.6 | 24.6 | 2.09 | 3.99 | 1.77 | 3.17 | 2.13 | 6.53 | 1.64 | 3 | 1.86 | 3.56 | 1.93 | 3.77
CC1OC(=O)C(O)=C1O (stereo not drawn) | – | > 100 | – | > 100 | – | > 100 | – | > 100 | – | > 100 | – | > 100 | – | > 100 | – | > 100 | – | > 100 | – | > 100
O=C(NCC(F)(F)F)Nc1cccc(-c2cnc3cc(-c4ccc(F)cc4)ccn23)c1 | 0.673 | 7.75 | 0.347 | 31.7 | 0.376 | 10.9 | 1.96 | > 54.2 | 0.477 | 12 | 0.622 | 20.8 | 0.24 | 2.09 | 2.26 | > 100 | 0.812 | 15.8 | 0.515 | 36.8
CC(C)c1cccc(C(C)C)c1N1C(=O)C(=O)C(c2nc3ccccc3o2)C(=O)C1=O | – | > 100 | – | > 100 | – | > 100 | – | > 100 | – | > 100 | – | > 100 | – | > 100 | – | 84.3 | – | > 100 | – | > 100
N#CC1=C(N)Oc2c(ccc3ccccc23)C1c1cc(=O)oc2ccc(Cl)cc12 (stereo not drawn) | 0.873 | > 100 | 0.453 | 31.4 | 0.375 | > 100 | 0.965 | > 100 | 0.972 | 44.7 | 0.535 | 20.2 | 2.16 | > 100 | 0.646 | > 100 | 0.386 | 12.3 | 0.411 | > 100
O=[N+]([O-])c1ccc(Cl)c(CNc2ncnc3c2ncn3C2CCCCO2)c1 (stereo not drawn) | – | > 100 | – | > 100 | – | > 100 | – | > 100 | – | > 100 | – | > 100 | – | > 100 | – | > 100 | – | > 100 | – | > 100
CCCCCCSSC(=S)N(CC)CC | 31.5 | 86.7 | 15.2 | 32.1 | 14.7 | 39.5 | 28.6 | 71.1 | 25 | 58.7 | 14.2 | 30.6 | 16.8 | 47.6 | 20.4 | 39.4 | 17.8 | 34.3 | 18.5 | 39.6
CC(=O)N1CCN(CCNC(=O)n2cc(-c3ccncc3)c(-c3cc(O)cc(Cl)c3)n2)CC1 | 18.5 | 55.1 | 14 | 34.4 | 4.41 | 29.4 | 12.4 | 25.4 | 10.8 | 27 | 10.9 | 26.1 | 13.5 | 41.4 | 10.2 | 23.3 | 17.3 | 46.5 | 10.9 | 26.9
NC(=O)c1ccc(Oc2nccc(-c3c(-c4ccc(F)cc4)ncn3C3CCNCC3)n2)cc1 | > 25 | > 25 | > 25 | > 25 | > 25 | > 25 | > 25 | > 25 | > 25 | > 25 | > 25 | > 25 | > 25 | > 25 | > 25 | > 25 | > 25 | > 25 | > 25 | > 25
COc1cc(C2C3=C(COC3=O)N(CCO)c3cc4c(cc32)OCCO4)cc(OC)c1OC (stereo not drawn) | 0.165 | 0.898 | 0.187 | 0.838 | 0.177 | > 50 | 0.224 | > 14.5 | 0.173 | 4.55 | 0.226 | > 50 | 0.183 | > 50 | 0.369 | > 50 | 0.135 | 0.315 | 0.226 | > 50
CSc1nc2nc3c(nc2c(=O)n1C)C(=O)c1ccccc1C3=O | 0.271 | 0.778 | 0.278 | 0.994 | 0.272 | 1.32 | 0.774 | 2.04 | 0.207 | 0.471 | 0.229 | 0.612 | 0.128 | 0.266 | 0.402 | 1.46 | 0.0378 | 0.21 | 0.252 | 0.738
COc1ccc(C2=Nc3ccccc3SC(C)C2)cc1OC (stereo not drawn) | – | 29.7 | – | 36.3 | – | 56.6 | – | 39.5 | – | 72.2 | – | 30.9 | – | 35 | – | 30.2 | – | 30.8 | – | 18.6
CCCOC(=O)c1c(C)n(C)c2scc[n+]12 | – | 22.9 | 44.5 | > 100 | 21 | > 100 | 49.6 | > 100 | 64.1 | > 100 | 34 | > 100 | 50.5 | > 100 | 80.1 | > 100 | 30.6 | > 100 | 67.4 | > 100
Cc1ccc(N=C[N-]c2ccc(C)cc2)cc1.Cc1ccc(N=C[N-]c2ccc(C)cc2)cc1.O=C([O-])C(F)(F)F.O=C([O-])C(F)(F)F.[OH3+].[OH3+].[Rh+2].[Rh+2] | 26.6 | 72.2 | 35 | > 100 | 25.4 | 67.1 | > 100 | > 100 | 32.6 | 69.8 | 25.8 | 72.3 | 16.8 | 53.9 | 23.5 | 58.5 | 62 | > 100 | 31.9 | > 100
O=C(NCCCc1cn[nH]c1)c1ccc(-c2ccncc2)c(C#Cc2ccc(F)cc2)c1 | 0.0282 | > 100 | < 0.0155 | > 83.2 | < 0.01 | > 100 | 8.96 | > 100 | 11.5 | > 74.1 | 0.243 | > 100 | 8.82 | > 100 | 3.66 | > 64.1 | 6.27 | > 100 | < 0.01 | > 100
Cc1ccc(NC(=O)C(=O)CC(=O)c2c(C)n([O-])c3ccccc3[n+]2=O)cc1C | – | > 100 | – | > 100 | – | > 100 | – | > 100 | – | > 100 | – | > 100 | – | > 100 | – | > 100 | – | > 100 | – | > 100
C/C(CN1C(=O)c2ccccc2C1=O)=N\NS(=O)(=O)c1cccc(C(=O)O)c1 | – | > 100 | – | > 100 | – | > 100 | – | > 100 | – | > 100 | – | > 100 | – | > 100 | – | > 100 | – | > 100 | – | > 100
O=C(NC(=O)c1c(Cl)nc2sccn12)Nc1ccc(Cl)cc1 | – | > 100 | – | > 100 | – | > 100 | – | 57.5 | – | > 100 | – | 55.9 | – | 47.1 | – | > 90.1 | – | > 100 | – | > 100
O=C(O)CCNS(=O)(=O)c1ccc2ccccc2c1 | – | > 100 | – | > 100 | – | > 100 | – | > 100 | – | > 100 | – | > 100 | – | > 100 | – | > 100 | – | > 100 | – | > 100
ClCc1ccccc1Cn1cnc2ncnc(Cl)c21 | 4.28 | 22.7 | 3.6 | 11.3 | 2.23 | 5.86 | 7.57 | 26.8 | 4.2 | 19.7 | 1.92 | 4.4 | 11.3 | 26.6 | 4.02 | 12.8 | 2.06 | 4.16 | 2.24 | 4.72
COc1ccc(C(=O)c2cc(C)c(OC)c(C)c2)c(OC)c1NC(C)=O | 0.529 | > 100 | 0.153 | > 100 | 0.937 | > 100 | 0.0674 | > 100 | > 100 | > 100 | 0.353 | > 100 | 0.0425 | > 100 | 0.0562 | > 100 | 0.483 | – | 0.19 | > 100
O=C1CSC(c2ccccc2Cl)N1c1nnc(Cn2cnnc2)o1 (stereo not drawn) | 17 | > 100 | 5.2 | 20.3 | 3.33 | 16.2 | 14.9 | 75.7 | 22.6 | 94.8 | 4.58 | 18.9 | 3.19 | 41.8 | 13.8 | 33.4 | 3.4 | 10.7 | 4.73 | 27.5
CN=C1C=CC(=C(c2ccc(N(C)C)cc2)c2ccc(N(C)C)cc2)C=C1 | 0.42 | 6.38 | 0.165 | 0.673 | 0.0784 | 1.1 | 0.261 | 0.828 | 0.202 | 0.462 | 0.0582 | 0.682 | 0.295 | 1.04 | 0.292 | 1.18 | 0.295 | 0.936 | 0.185 | 1.35
CN(C)CC1CC/C(=C\c2ccc3c(c2)OCO3)C1=O (stereo not drawn) | – | 26.9 | – | 18.9 | – | 11.4 | – | > 57 | – | 22.8 | – | 36.1 | – | 28.5 | – | 13 | – | 15.3 | – | 14.4
c1ccc(OCCC[P+](c2ccccc2)(c2ccccc2)c2ccccc2)cc1 | 1.42 | 17.4 | 0.55 | 10.9 | 0.634 | 16.3 | 4.11 | 32.4 | 1.56 | 4.88 | 1.63 | 14 | 1.27 | 6.7 | 4.14 | 20 | 1.12 | 19.4 | 2.22 | > 100
CCC[CH2][Sn]([CH2]CCC)([S]C#N)[S]C#N | 1.27 | 2.78 | 1.45 | 3.11 | 0.215 | 1.35 | 1.77 | 3.39 | 0.457 | 1.68 | 0.768 | 2.04 | 0.592 | 2.08 | 1.2 | 2.49 | 1.4 | 2.7 | 0.378 | 1.54
